Measured values from ChEMBL document CHEMBL3045395, “Synthesis and reactive oxygen species scavenging activity of halogenated alkaloids from boldine” (Med Chem Res, 2012).

Key:
[1] = Antioxidant activity in Homo sapiens (human) PMNC assessed as inhibition of fMLP-induced ROS generation at 100 uM incubated for 30 min prior to fMLP-induction measured every 4 secs for 100 secs by luminol-enhanced chemiluminescence analysis; type: functional
[2] = biological target: Xanthine dehydrogenase/oxidase (Homo sapiens, UniProt P47989); experiment: Inhibition of xanthine oxidase (unknown origin) using pterine as substrate assessed as rate of isoxantopterine formation by fluorimetric analysis (reference value: 3.25 +/- 0.25 umol/min)
[3] = Antioxidant activity assessed as inhibition of hypoxanthine/xanthine oxidase-mediated ROS generation incubated for 5 min prior to xanthine oxidase addition measured every 4 secs for 100 secs by luminol-enhanced chemiluminescence analysis; type: functional
[4] = (§1) Antioxidant activity in Homo sapiens (human) PMNC assessed as inhibition of fMLP-induced ROS generation incubated for 30 min prior to fMLP-induction measured every 4 secs for 100 secs by luminol-enhanced chemiluminescence analysis; type: functional
Homo sapiens = species: Homo sapiens; experiment: as §1; type: functional

Xanthine dehydrogenase/oxidase, sequence (P47989 whole entry): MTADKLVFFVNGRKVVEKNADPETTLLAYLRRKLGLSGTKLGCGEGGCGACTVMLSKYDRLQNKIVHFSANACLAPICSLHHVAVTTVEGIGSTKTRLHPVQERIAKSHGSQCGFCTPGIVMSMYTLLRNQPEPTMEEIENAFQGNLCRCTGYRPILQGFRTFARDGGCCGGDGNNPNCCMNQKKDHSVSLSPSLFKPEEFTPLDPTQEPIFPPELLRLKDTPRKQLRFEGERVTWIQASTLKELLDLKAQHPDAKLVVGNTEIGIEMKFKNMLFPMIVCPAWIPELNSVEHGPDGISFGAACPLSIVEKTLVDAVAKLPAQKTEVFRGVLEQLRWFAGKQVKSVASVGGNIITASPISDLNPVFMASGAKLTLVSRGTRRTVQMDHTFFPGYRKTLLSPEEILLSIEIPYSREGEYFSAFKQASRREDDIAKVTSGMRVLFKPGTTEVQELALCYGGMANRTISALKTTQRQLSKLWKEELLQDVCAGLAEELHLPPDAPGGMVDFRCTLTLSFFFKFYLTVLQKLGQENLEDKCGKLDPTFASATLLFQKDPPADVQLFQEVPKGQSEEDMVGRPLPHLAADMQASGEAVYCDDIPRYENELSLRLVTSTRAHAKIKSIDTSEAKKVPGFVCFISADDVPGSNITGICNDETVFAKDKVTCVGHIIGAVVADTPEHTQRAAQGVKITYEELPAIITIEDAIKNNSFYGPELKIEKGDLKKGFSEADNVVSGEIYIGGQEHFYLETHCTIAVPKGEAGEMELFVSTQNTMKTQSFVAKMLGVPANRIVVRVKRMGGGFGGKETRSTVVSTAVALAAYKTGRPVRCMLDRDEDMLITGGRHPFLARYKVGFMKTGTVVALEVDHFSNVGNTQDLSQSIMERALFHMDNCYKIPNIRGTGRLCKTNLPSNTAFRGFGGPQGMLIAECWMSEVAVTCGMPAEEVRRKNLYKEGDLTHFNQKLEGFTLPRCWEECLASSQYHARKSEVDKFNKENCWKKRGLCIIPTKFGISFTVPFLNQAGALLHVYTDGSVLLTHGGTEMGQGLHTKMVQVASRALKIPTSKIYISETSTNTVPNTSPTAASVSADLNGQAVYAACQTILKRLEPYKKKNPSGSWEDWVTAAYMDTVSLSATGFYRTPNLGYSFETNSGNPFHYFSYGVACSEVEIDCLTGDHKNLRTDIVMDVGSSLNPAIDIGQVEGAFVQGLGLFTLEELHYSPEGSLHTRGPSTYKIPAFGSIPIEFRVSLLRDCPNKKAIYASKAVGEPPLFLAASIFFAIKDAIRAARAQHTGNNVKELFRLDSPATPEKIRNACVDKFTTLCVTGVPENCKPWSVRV

Row | SMILES | Activity [2] [µmol/min] | IC50 [3] [nM] | IC50 [4] [nM] | inhibition at 100 µM [1] [%] | inhibition [3] | inhibition (Homo sapiens)
1 | COc1cc2ccc3c(CC[N+](C)(C)C)c(Br)c(OC)c(OC)c3c2cc1OC.[I-] | 3.45 | 3010 |  | 62 | Dose-dependent effect | 
2 | CNCCc1c(Br)c(O)c(OC)c2c1ccc1cc(O)c(OC)cc12 [2-BROMOSECOBOLDINE] | 2.82 | 160 | 640 |  | Dose-dependent effect | Dose-dependent effect
3 | COc1cc2c(cc1O)C[C@H]1c3c(c(Br)c(O)c(OC)c3-2)CCN1C [3-BROMOBOLDINE] | 4.09 | 550 | 810 |  | Dose-dependent effect | Dose-dependent effect

Further lines, with some results ahead:

Row | Activity [2] [µmol/min] | IC50 [3] [nM] | IC50 [4] [nM] | SMILES | inhibition at 100 µM [1] [%] | inhibition [3] | inhibition (Homo sapiens)
4 | 3.98 | 190 | 780 | COc1cc2c(ccc3c(CCN(C)C)c(Br)c(O)c(OC)c32)cc1O [2-BROMO-N-METHYLSECOBOLDINE] |  | Dose-dependent effect | Dose-dependent effect
5 |  |  | 168000 | O=C1O[C@H]([C@@H](O)CO)C(O)=C1O [ASCORBIC ACID] |  |  | 
6 | 3.77 | 2000 | 1270 | COc1cc2c(cc1O)C[C@H]1c3c(c(Br)c(O)c(OC)c3-2)CC[N+]1(C)C.[I-] [3-BROMO-N-METHYLBOLDINE IODIDE] |  | Dose-dependent effect | Dose-dependent effect
7 | 3.6 | 2110 | 740 | COc1cc2c(ccc3c(CC[N+](C)(C)C)c(Br)c(O)c(OC)c32)cc1O.[I-] |  | Dose-dependent effect | Dose-dependent effect
